The NIST ThermoML archive (doi:10.1021/je800757j)
Numbers after ± are expanded uncertainties.

Details: Liquid

Row | vapor or sublimation pressure (433.15 K) [kPa] | vapor or sublimation pressure (443.15 K) [kPa] | vapor or sublimation pressure (453.15 K) [kPa] | vapor or sublimation pressure (393.15 K) [kPa] | vapor or sublimation pressure (413.15 K) [kPa] | vapor or sublimation pressure (373.15 K) [kPa] | vapor or sublimation pressure (423.15 K) [kPa] | vapor or sublimation pressure (353.15 K) [kPa] | Compound
1 | 477 ± 18 | 587 ± 19 | 703 ± 21 | – | – | – | – | – | CCCCCCC [heptane]
2 | 918 ± 25 | – | 1301 ± 33 | 410 ± 17 | 633 ± 20 | – | – | – | CCCCCC [hexane]
3 | – | – | – | – | – | 600 ± 20 | 1620 ± 40 | – | CCCCC [pentane]
4 | – | – | – | 2265 ± 56 | 3156 ± 78 | 1586 ± 39 | – | 1039 ± 27 | CCCC [butane]
